Earlier results, collected in patent US20030044472A1, “METHOD AND SYNERGISTIC COMPOSITION FOR TREATING ATTENTION DEFICIT/HYPERACTIVITY DISORDER” (DexGen-Intellectual Property, Homocysteine, Inc., priority 2001, published 2003).
Structures can show the parent of a compound that is named as a salt.

Tests used:
[1] = test system: ADHD children; details: double blind clinical study
[2] = test system: ADHD children; details: supplements at 6 mg/lb. of the child

SMILES | test score improvements vs. placebo [1] | hyperactivity [2]
COC(=O)C(c1ccccc1)C1CCCCN1 (centres unmarked) [Ritalin, methylphenidate hydrochloride] | significant test score improvements | 
[Mg+2] [magnesium] |  | a decrease in hyperactivity
